Here are results for 2 substances from patent US20150158914A1, “PEPTIDES, CONSTRUCTS AND USES THEREFOR” (priority 2010, published 2015).

For experiment [1], the system named is X-protein. The experiment in a line: Non-reducing SDS-PAGE/Western blot of X-protein tertiary structure in HepG2 transfectants. Format: cell-based, hepatitis B virus. As to conditions: peptide added thrice over 48 h, non-reducing conditions. Here is the method:
The inventors investigated how the oligomerization domain peptide (aa 16-35) antagonized X-protein-mediated function. The aim was to determine whether the peptide disrupted the tertiary structure of the X-protein. HepG2 cells were transfected with either the pCDNA3.1-HBX, pCDNA3-HBX Myc or pCDNA3-GFP plasmids and were treated thrice over 48 h with the oligomerization domain peptide (aa 16-35). Control transfectants were not treated with peptide. The nuclear subfraction was resolved by SDS-PAGE using non-reducing loading buffer to keep the disulphide bonding of the X-protein intact. The proteins were transferred onto a PVDF membrane, and probed with a mouse antihuman X-protein primary antibody, followed by a secondary goat anti-mouse HRP-conjugated antibody. […] Transfectants not treated with peptide expressed higher order forms of the X-protein, including the dimeric form at ˜34 kDa, and apparently even higher order structures (FIG. 11). In contrast, cells transfected with pCDNA3.1-HBX and pCDNA3-HBX Myc and treated with the oligomerization domain peptide expressed monomeric forms at ˜17 kDa and ˜21 kDa, respectively.
Background: Immunoblotting shows a protein as a band on a membrane.

For experiment [2], the system named is nonadherent erythrocytes and platelets. The experiment in a line: Peptide uptake in whole blood. The experiment is classed as cell-based. The following applies: whole blood in 10 mM citrate buffer, 3 h. Here is the method: Whole blood was incubated with the fluoresceinated X-protein cell-permeable peptide aa 16-22 for 3 h to determine whether erythrocytes and platelets are able to take up the peptide. Blood was collected from a finger prick and suspended in 10 mM citrate buffer to prevent the blood clotting. After incubation with peptide the cells were washed in PBS and a blood smear prepared on a glass slide. The cells were stained with Diff-Quik.

“Also recorded” adds a separate entry of the source. Ends that are not written are not given here. * marks the point of attachment. FITC = O=C1OC2(c3ccc(O)cc3Oc3cc(O)ccc32)c2ccc(NC(=S)*)cc21

Consider “FITC-Acp-LCLRPVGAESRGRPVSGPFG [Peptide 16-35]”, for which, in experiment [1], the “overall level of the X-protein” value was “did not decrease the overall level of the X-protein”. Besides, the “tertiary structure of the X-protein (dimeric and higher order forms)” value in experiment [1] (listed as oligomerization domain peptide (aa 16-35)) is “Disruption of the tertiary structure of the X-protein; also recorded: disrupts the tertiary structure of the X-protein, preventing dimerization and the formation of higher order structures”.

With “FITC-LCLRPVG ({FITC}-LCLRPVG) [Peptide 16-22]”, the “uptake by erythrocytes and platelets” value is “does not enter” in experiment [2] (listed as X-protein cell-permeable peptide 16-22) and “None of the cell types present” in experiment [2] (listed as X-protein cell-permeable peptide aa 16-22).
